One may read the IC50 as the point on the concentration scale where inhibition reaches its midpoint. Broadly, the half-life is the time needed for the level to fall by half in the phase considered. A high value points to slow decline. Usually Cmax stands for the peak of the concentration-time curve. The term Tmax denotes the time at which the peak concentration occurs. What is called Ki is the dissociation constant of the complex between target and ligand, obtained from inhibition or displacement.

Molecules are shown by their SMILES. Where two headings read alike, the source gives them in different places.

Data set [1] concerns the target T1, human GnRH receptor (Homo sapiens, UniProt P30968).
T1 construct: expressed in transfected cells; host or cells: HEK 293 (hGnRH-R/293, from Dr. Stuart Sealfon)
T1 sequence (P30968 1-328): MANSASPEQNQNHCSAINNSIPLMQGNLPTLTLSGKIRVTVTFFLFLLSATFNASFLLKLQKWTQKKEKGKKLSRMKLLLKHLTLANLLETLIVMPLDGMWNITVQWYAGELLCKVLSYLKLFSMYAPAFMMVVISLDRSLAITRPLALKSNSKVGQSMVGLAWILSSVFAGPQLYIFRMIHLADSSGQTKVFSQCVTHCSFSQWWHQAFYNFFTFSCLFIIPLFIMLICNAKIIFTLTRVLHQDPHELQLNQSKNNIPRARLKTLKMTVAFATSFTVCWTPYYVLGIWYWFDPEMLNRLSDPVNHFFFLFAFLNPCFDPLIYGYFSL
The data set is described as follows: Radioligand binding, 125I-GnRH-A displacement, membranes of HEK 293 cells with human GnRH receptor. A digest of the protocol:
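After filtration and PBS washes, bound radioactivity was counted by scintillation and IC50 derived. Identical conditions applied for non-human receptors.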

For data set [2], the target named is T2, mouse GnRH receptor (Mus musculus, UniProt Q01776).
T2 construct: expressed in transfected cells; host or cells: 293 cells
T2 sequence (Q01776 1-327): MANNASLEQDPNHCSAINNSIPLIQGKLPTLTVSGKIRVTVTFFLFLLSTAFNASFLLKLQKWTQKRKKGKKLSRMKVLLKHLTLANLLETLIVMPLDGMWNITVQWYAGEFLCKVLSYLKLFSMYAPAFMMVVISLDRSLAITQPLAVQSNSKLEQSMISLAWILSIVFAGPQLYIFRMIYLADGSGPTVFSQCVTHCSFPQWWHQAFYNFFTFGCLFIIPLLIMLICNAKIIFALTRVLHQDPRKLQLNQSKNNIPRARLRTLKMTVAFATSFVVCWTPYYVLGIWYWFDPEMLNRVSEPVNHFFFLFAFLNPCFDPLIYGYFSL
Briefly: Radioligand binding, 125I-GnRH-A, 293 cells expressing mouse GnRH receptors. The method in brief: (§1)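 Bound label captured on 0.1% polyethyleneimine-treated GF/C filters, washed three times with PBS, counted. IC50 derived; identical set-up for every species.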

Data set [3] in a line: Pharmacokinetic studies / bioavailability in rats. It counts as in vivo, rat. Conditions: rat male; for half-life / Cmax / Tmax: male, rat, plasma; for half-life: iv, 10 mg/kg; for Cmax / Tmax: po, 20 mg/kg.
The target of data set [4] is T3, ILRA (CXCR-1) (Homo sapiens, UniProt P25024).
T3 sequence (P25024 1-350): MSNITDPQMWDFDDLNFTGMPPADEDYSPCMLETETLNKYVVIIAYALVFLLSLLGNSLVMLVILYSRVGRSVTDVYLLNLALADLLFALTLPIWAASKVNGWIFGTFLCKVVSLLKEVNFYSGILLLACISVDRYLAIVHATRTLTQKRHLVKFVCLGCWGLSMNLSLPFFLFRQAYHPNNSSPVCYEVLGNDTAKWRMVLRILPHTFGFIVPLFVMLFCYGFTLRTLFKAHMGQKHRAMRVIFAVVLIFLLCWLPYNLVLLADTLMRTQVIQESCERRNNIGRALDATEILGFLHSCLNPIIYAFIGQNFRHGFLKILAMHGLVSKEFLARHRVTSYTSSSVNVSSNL
Briefly: Selectivity: ILRA (CXCR-1) / IL8.

Data set [5] has as its target T4, rat GnRH receptor (Rattus norvegicus, UniProt P30969).
T4 sequence (P30969 1-327): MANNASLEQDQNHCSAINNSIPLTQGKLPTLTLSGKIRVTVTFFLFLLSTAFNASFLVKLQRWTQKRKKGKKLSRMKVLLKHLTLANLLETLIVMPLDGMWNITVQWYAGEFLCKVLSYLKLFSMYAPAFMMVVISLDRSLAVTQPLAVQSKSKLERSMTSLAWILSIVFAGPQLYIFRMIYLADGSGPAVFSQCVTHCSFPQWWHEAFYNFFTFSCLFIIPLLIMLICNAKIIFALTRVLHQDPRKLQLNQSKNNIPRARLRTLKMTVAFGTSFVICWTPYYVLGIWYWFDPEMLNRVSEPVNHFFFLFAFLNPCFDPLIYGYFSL
Briefly: Radioligand binding, 125I-GnRH-A, rat pituitary membranes. More on the design: membranes were prepared from rat pituitary; from tissue; host or cells: rat pituitary. The method in brief:
as §1

Setting [6] is: means ± SE of at least three experiments performed in duplicate, read-out: Human IC50.
[7] abbreviates: second value marked * (mostly in parentheses), asterisk not explained, read-out: hGnRH IC50, value marked *.
[8] abbreviates: p.o. 20 mg/kg, vehicle per footnote (DMSO/cremophor/saline).

For `Cc1cnc(CNC(=O)c2ccc(Cc3cc4c(cc3C)C(C)(C)CCC4(C)C)o2)cn1` [Compound 13], the IC50 is 0.11 ± 0.02 µM in data set [1] (setting [6]); 0.11 µM in data set [1] (read-out: hGnRH IC50); 0.04 µM in data set [1] (setting [7]); 0.12 ± 0.02 µM in data set [2] (means ± SE of at least three experiments performed in duplicate, read-out: Mouse IC50); 0.12 µM in data set [2] (read-out: mGnRH IC50); greater than 10 µM in data set [4]. The IC50 in data set [5] (means ± SE of at least three experiments performed in duplicate, read-out: Rat IC50) amounted to 0.06 ± 0.008 µM; in data set [5] (read-out: rGnRH IC50), 0.06 µM. Moreover, in data set [3], the half-life is 1.5 h.
Consider `COc1cccc(OC)c1NC(=O)c1ccc(Cc2cc3c(cc2C)C(C)(C)CCC3(C)C)o1` [Compound 20], for which the IC50 in data set [1] (setting [6]) is 0.008 ± 0.0009 µM; in data set [1] (read-out: hGnRH IC50), 0.008 µM; in data set [2] (read-out: mGnRH IC50) it was 0.02 µM; in data set [4], greater than 10 µM; in data set [5] (read-out: rGnRH IC50) it was 0.005 µM. The compound further came in with a half-life in data set [3] of 0.867 h. Besides, in data set [3] (setting [8]), the peak level (Cmax) was 0.2 µM. Further, in data set [3] (setting [8]), the time to peak (Tmax) came to 1 h. Also, the Ki in data set [4] is greater than 10 µM.
As for `Cc1cc2c(cc1Cc1ccc(C(=O)NCc3nc4ccccc4[nH]3)o1)C(C)(C)CCC2(C)C` [Compound 48], the IC50 was 0.05 µM in data set [1] (read-out: hGnRH IC50); 0.04 µM in data set [1] (setting [7]); 0.01 µM in data set [2] (read-out: mGnRH IC50); greater than 10 µM in data set [4]; 0.006 µM in data set [5] (read-out: rGnRH IC50). The compound also gave a half-life in data set [3] of 1.1 h. The compound further yielded a Cmax in data set [3] (setting [8]) of 0.33 µM. Further, the Tmax in data set [3] (setting [8]) was 1.5 h. Also, the Fp.o. in data set [3] (setting [8]) was 4% (20 mg/kg)^1.
